# Laboratory results as given in patent publication US6136821A, “Naphthyridine derivatives” (Novartis AG, priority 1996, dated 2000).
# What was measured:
# [1] = Water solubility; type: physicochemical; details: N-methyl-D-glucamine salt
# [2] = tested on: human eosinophils; assay: Inhibition of eosinophil activation by formyl-MetLeuPhe (fMLP); oxidative burst (lucigenin chemiluminescence); type: cell-based; details: fMLP 1 μM, lucigenin 25 μM, purified human eosinophils
# Experimental: Anti-inflammatory activity: Inhibition of eosinophil activation by formyl-MetLeuPhe (fMLP)
# Purified human eosinophils (10^4 /well in 0.2 ml HBSS) are stimulated with fMLP (1 μM) in the presence of lucigenin (25 μM). Inhibition of the oxidative burst (measured as changes in chemiluminescence) is determined from dose response curves using the logistic equation.
SMILES,water solubility [1],IC50 [2] [nM]
"CNC[C@H](O)[C@@H](O)[C@H](O)[C@H](O)CO.O=C(O)c1ccc(-c2cc3cccnc3c(-c3cccc4nonc34)n2)cc1 [Example 34, 6-(4-carboxyphenyl)-8-(4-benzo[c]furazanyl)-1,7-napthyridine: salt with N-methyl-D-glucamine]",water soluble,–
"Nc1cc2cccnc2c(-c2cccc3nonc23)n1 [Example 2, 6-amino-8-(4-benzo[c]furazanyl)-1,7-naphthyridine]",–,6
